Measurements published in patent US20060135765A1, “Antineoplastic ether lipid compounds” (priority 2003, published 2006).
“And” between values parts separate entries of the source, which are not always exact repeats. Identical values can stand only once. Like-named read-outs stand apart in the source and are kept apart here.

What was measured:
MCF7 = test: In vitro growth inhibition (SRB), MCF7; assay type: cell-based, human; conditions: MCF7 tumor cell line; 3 days
Excerpt: (§1) III. In Vitro Growth Inhibition (GI50) A. Cell line maintenance The following cell lines were selected from the cell bank for screening and GI50 studies: MCF-7: human breast tumor, MCF-7/ADR: MCF-7 adriamycin resistant subline, HT-29: human colon carcinoma, A-549: human non-small cell lung cancer, NIH-3T3: mouse Swiss embryo fibroblast and WI-38: human lung fibroblast, SKMEL-28: human melanoma, Lewis Lung: mouse lung carcinoma, DU-145: prostate carcinoma, B16F10: mouse melanoma, L1210: murine lymphocytic leukemia, P-388: murine leukemia, U-937: human histolytic lymphoma. […]
(§2) The test compounds were made in-house and the compounds were dissolved PBS or saline at a stock concentration of approximately 20 mM, which is 400 times the desired final maximum test concentration. […] After 3 days of incubation, cell growth was determined.
(§3) The SRB assay was performed as described by Monks, A., Scudiero, D., Skehan, P., Shoemaker, R., Paull, K., Vistica, D., Hose, C., Langley, J., Cronise, P., and Vaigro-Wolff, A. Feasibility of a high-flux anticancer drug screen using a diverse panel of cultured human tumor cell lines. […] Bound SRB was solubilized with Tris buffer (10 mM), and the ODs were read using an automated plate reader (Bio-Rad, Model 3550-UV) at 490 nm. Background values were subtracted from the test data, and the data was calculated as a % of control. […]

[1] = tested on: DEVDase activity in Jurkat T Cells; test: DEVDase activity in Jurkat T cells; assay type: cell-based
Experimental: Suspension cells were seeded at density 3.2×10^5 cells per mL in RPMI-1640 medium (Bio-Whittaker) supplemented with 10% heat inactivated FBS (Bio-Whittaker). Cells were pre-incubated overnight prior to treatment with the ether lipid compounds of the invention. At treatment time cell density was 5×10^5 cells per mL. Cells were incubated with the ether lipid compounds of the invention for various periods of time, usually 6 hours. Cells were collected, washed with 1×DPBS and resuspended in 110 μl of Buffer A (10 mM HEPES-KOH, pH 7.4, 2 mM EDTA, 0.1% CHAPS, 5 mM DTT, 1:100 dilution of protease inhibitors cocktail (SigmaYDTT and protease inhibitors should be added just before use). After 10 min incubation on ice in order to lyse cells, samples were frozen on dry ice/ethanol and kept at −20° C. until analysis. […] At the time of analysis of DEVDase activity frozen pellets were kept on ice until thawed and after vigorous vortexing samples were centrifuged at 14,000 rpm for 6 min. Supernatant was transferred into another tube and 2 μl, in triplicates, were used for protein measurement using Bradford reagent (Bio-Rad).
Measurement of DEVDase activity was carried out in 100 μl volume, where 10 μg of protein was delivered in 50 μl of Buffer A and 40 μM of substrate Ac-DEVD-AMC was also delivered in 50 μl of Buffer A. All measurements were done in triplicates. Reaction was carried out for 1 hour and generation of fluorescent product of reaction (aminomethylcoumarin) was measured by reading fluorescence at 1em 460 nm (1ex 360 nm). Changes in DEVDase activity were calculated after subtraction of background fluorescence of substrate incubated without proteins, and were expressed as percent of control (DEVDase activity in untreated cells). Average of DEVDase activity, calculated from few independent experiments, was used to calculate percent of L-ether lipid-induced DEVDase activity.

HT29 = test: In vitro growth inhibition (SRB), HT29; assay type: cell-based, human; conditions: HT29 tumor cell line; 3 days
Excerpt: as §1, §2, §3

NIH-3T3 = test: In vitro growth inhibition (SRB), NIH-3T3 normal fibroblasts; assay type: cell-based, mouse; conditions: NIH-3T3 normal cell line; 3 days
Excerpt: as §1, §2, §3

Washed Human RBCs = test: Hemolysis assay with washed human red blood cells; assay type: cell-based
Experimental: Venous blood was collected in 10 mL Vacutainer tubes containing EDTA using a 21G needle or larger. […] The blood was transferred from 1 EDTA tube to a 50 mL conical tissue culture tube and the volume was brought up to 50 mL with PBS.
The blood was centrifuged for 10 minutes at 1500 RPM. The supernatant was removed and the blood was resuspended up to 50 mL with PBS. Next the blood was centrifuged for 10 minutes at 1500 RPM.
The supernatant was removed, and 2.0 mL of packed red blood cells was carefully transferred, using positive displacement pipet, into a fresh conical tissue culture tube. Next, 48 mL PBS was added to achieve a 4% washed RBC solution.
Next, 25, 50, 100 and 200 uM stock solutions of test sample in phosphate buffered saline (PBS) as follows:
Next, 0.5 mL of 4% washed RBC was added to 0.5 mL test sample dilutions (in duplicate). The final concentration of test sample was 50% of working stock solution.
The samples were capped or sealed with Parafilm and the samples were gently mixed. The blood was incubated at 37° C. in gentle rotating water bath for 30 minutes. The samples were centrifuged for 10 minutes at 1500 RPM. Next, 200 uL of supernatant was transferred to a cuvette and 1 mL deionized water was added. Absorbance was measured at 550 nm vs. a water blank. Next, H10 and H50 were determined by graphing Absorbance vs. Test Sample Concentration.

[2] = tested on: platelets in dog whole blood; test: Platelet aggregation in dog whole blood (whole blood aggregometer)
Experimental: Briefly, whole citrated blood is diluted 1:2 with sterile saline and placed in a warm chamber with a mini stir bar. An electronic probe, measuring electrical resistance, is inserted in the sample. The aggregometer is calibrated and the baseline is observed to detect any spontaneous aggregation. The test sample is added and allowed to run for at least 6 minutes. If the sample is an agonist the platelets will start to aggregate and stick to the electronic probe causing resistance across the electrodes to increase. This resistance, in ohms, is measured 6 minutes post addition of sample. The test samples are run at 25, 100, 200, 400 and 800 uM and compared to 100 uM L-ET-18-OCH3.
Collection of Blood Sample for in vitro Platelet Aggregation Testing: Venous blood is collected in 4.5 mL Vacutainer tubes containing 0.129 M sodium citrate using a 21G needle or larger. Blood is immediately mixed by gentle inversion 15-20 times and kept at room temperature. Dilution ratio is 1 to 9 (3.8% citrate solution:blood). One (2.0 mL) Vacutainer tube containing EDTA is also collected for platelet counts. Complete blood counts (CBC) are measured on the CDC Technologies Hemavet 1500 to ensure that the test subject's platelets are within normal range. Any vials of hemolytic blood or blood containing any clots should be discarded. Platelet aggregation testing must be completed within 3 hours of blood collection. After this time the ability of platelets to aggregate decreases.
Cloudy solutions were warmed to 50° C. to dissolve and particles. Dilutions were prepared in PBS or saline at 40× concentration. (25 uL test sample are added to 1000 uL diluted blood (1:40)).
Procedure for in vitro Platelet Aggregation Test using CH NO-LOG Aggregometer Model 560-CA: The following protocol was used:

WI38 = test: In vitro growth inhibition (SRB), WI-38 normal fibroblasts; assay type: cell-based, human; conditions: WI38 normal cell line; 3 days
Excerpt: as §1, with “lymphoma. Except HT-29, WI-38, NIH-3T3 and Lewis Lung which were obtained from the American Type Culture Collection (Rockville, Md.) all the other cell lines were obtained from National Cancer Institute—Frederick Research Facility (Frederick, Md.).” for “lymphoma.”
as §2
The SRB assay was performed as described by Monks, A., Scudiero, D., Skehan, P., Shoemaker, R., Paull, K., Vistica, D., Hose, C., Langley, J., Cronise, P., and Vaigro-Wolff, A. Feasibility of a high-flux anticancer drug screen using a diverse panel of cultured human tumor cell lines. […] Bound SRB was solubilized with Tris buffer (10 mM), and the ODs were read using an automated plate reader (Bio-Rad, Model 3550-UV) at 490 nm. Background values were subtracted from the test data, and the data was calculated as a % of control. […] Percentage growth was calculated as described by Peters, A. C, Ahmad, L, Janoff, A. S., Pushkareva, M. Y., and Mayhew, E. Growth Inhibitory efects of liposome-associated 1-o-octadecyl-2-o-metlryl-sn-glycero-3-phosphocholine. […]

Whole Human Blood = test: Hemolysis assay with whole human blood; assay type: cell-based
Experimental: Venous blood was collected in 10 mL Vacutainer tubes containing EDTA using a 21G needle or larger.
stock solutions of 20 mM test sample in phosphate buffered saline (PBS) were prepared as follows:
Then 270 uL of whole blood was aliquotted in duplicate mini test tubes using positive displacement pipet. Next, 30 uL of each working stock solution, in duplicate, was added to the whole blood. Next, 30 uL of PBS was added for background control. The samples were capped or sealed with Parafilm and gently mixed. The blood was incubated at 37° C. in gentle rotating water bath for 30 minutes. Final concentration of test sample was 10% of working stock solution.
Total hemolysis samples of 1% and 10% whole blood samples in deionized water were prepared as follows: 1:100=10 uL whole blood+990 uL deionized water 1:10=100 uL whole blood+900 uL deionized water
The samples were freeze thawed 3× in liquid nitrogen then water bath. The samples were then centrifuged 10 minutes at 1500 RPM. Next, 100 uL of supernatant was transferred to a cuvette and […] deionized water was added. The absorbance was read at 550 nm vs. water blank.
H10 and H50 were calculated by graphing Percent Total Hemolysis vs. Test Sample Concentration. The Percent Total Hemolysis=(average o.d of test sample)/(average o.d. of total hemolysis sample)×100

A549 = test: In vitro growth inhibition (SRB), A549; assay type: cell-based, human; conditions: A549 tumor cell line; 3 days
Excerpt: as §1, §2, §3

MCF7/ADR = test: In vitro growth inhibition (SRB), MCF7/ADR; assay type: cell-based, human; conditions: MCF7/ADR tumor cell line; 3 days
Excerpt: as §1, §2, §3

RPMI-8226 = test: NCI screen, RPMI-8226; assay type: cell-based, human; conditions: leukemia panel
Experimental: (§4) Candidates deemed suitable for in vivo testing were then synthesized in large scale quantities and some of this material was sent to the NCI's Developmental Therapeutics Program for a battery of growth inhibitory studies against various human tumor cell lines (60 cell lines, 9 different panels). The remainder of the material was used to assess in vivo efficacy using murine tumor models. Additionally, studies were conducted on the lead candidates to discern mechanism of action with particular emphasis on these agents apoptotic ability as measured by caspase 3 activity. The details (materials and methods) for these various assays are described further in the following discussion.
(§5) Ten compounds were also sent to NCT's Drug Discovery Program for screening against numerous human tumor cell lines (9 panels total: renal ovarian, colon, CNS, non-small cell lung, leukemia, breast, melanoma, and prostate). The data are shown in FIGS. 2a-i which also include data regarding D- and L-ET-18-OCH3 (listed as L-EL and D-EL in the figures).

K-562 = test: NCI screen, K-562; assay type: cell-based, human; conditions: leukemia panel
Experimental: as §4, §5

[3] = tested on: human umbilical vein endothelial cell (HUVEC) line; test: In vitro growth inhibition, HUVEC; assay type: cell-based
[4] = concentration producing 10% hemolysis
[5] = concentration producing 50% hemolysis

## CCCCCCCCCCCCCCCCCCOCC(CCP(=O)([O-])OCCC[N+](C)(C)C)OC [2(S), 3′-Trimethylaminopropyl-1-O-octadecyl-2-O-methylbutane-4-phospbonate]
MCF7
  GI50: 34.8 µM
[1]; [ether lipid] 10 μM
  % L-ET18OCH3 (DEVDase, 6 hrs): 57.2 ± 8.4 % L-ET18OCH3
[1]; [ether lipid] 20 μM
  % L-ET18OCH3 (DEVDase, 6 hrs): 70.6 ± 10.8 % L-ET18OCH3
[1]; [ether lipid] 30 μM
  % L-ET18OCH3 (DEVDase, 6 hrs): 76.8 ± 11.1 % L-ET18OCH3
HT29
  GI50: 4.8 µM
NIH-3T3
  GI50: 33.5 µM and 33.6 µM
Washed Human RBCs; [4]
  H10: 14 µM and 8 µM
Washed Human RBCs; [5]
  H50: 21 µM and 11 µM
[2]
  platelet aggregation response (in words): no aggregation was noted
[2]; 25 μM
  Relative Platelet Aggregation (Ohms): 0 Ohms
[2]; 100 μM
  Relative Platelet Aggregation (Ohms): 0 Ohms
[2]; 200 μM
  Relative Platelet Aggregation (Ohms): 0 Ohms
[2]; 400 μM
  Relative Platelet Aggregation (Ohms): 0 Ohms
[2]; 800 μM
  Relative Platelet Aggregation (Ohms): 0 Ohms
[2]; listed as 2
  platelet aggregation response (in words): did not evoke a platelet aggregation response
WI38
  GI50: < 4 µM
Whole Human Blood; [4]
  H10: 400 µM
Whole Human Blood; [5]
  H50: >2000 µM
A549
  GI50: 7.2 µM
MCF7/ADR
  GI50: > 40 µM

## CCCCCCCCCCCCCCCCCCOCC(COP(=O)([O-])OCC[N+](C)(C)C)OC [D-ET18OCH3, 1-O-octadecyl-2-O-methyl-glycerophosphocholine]
RPMI-8226
  activity against RPMI-8226 (in words): extremely poor activity
[1]; [ether lipid] 10 μM
  % L-ET18OCH3 (DEVDase, 6 hrs): 79.3 ± 9.7 % L-ET18OCH3
[1]; [ether lipid] 20 μM
  % L-ET18OCH3 (DEVDase, 6 hrs): 89.2 ± 12.2 % L-ET18OCH3
[1]; [ether lipid] 30 μM
  % L-ET18OCH3 (DEVDase, 6 hrs): 92.1 ± 11.8 % L-ET18OCH3
K-562
  activity against K-562 (in words): extremely poor activity
WI38
  GI50: 10 to 13 µM

## CCCCCCCCCCCCCCCCCCOCC(COP(=O)([O-])OCC[N+](C)(C)C)OC [L-ET18OCH3, 1-O-octadecyl-2-O-methyl-glycerophosphocholine]
[1]; [ether lipid] 10 μM
  % L-ET18OCH3 (DEVDase, 6 hrs): 100 ± 8.8 % L-ET18OCH3
[1]; [ether lipid] 20 μM
  % L-ET18OCH3 (DEVDase, 6 hrs): 100 ± 10.4 % L-ET18OCH3
[1]; [ether lipid] 30 μM
  % L-ET18OCH3 (DEVDase, 6 hrs): 100 ± 9.3 % L-ET18OCH3
WI38
  GI50: 10 to 12 µM
[3]
  GI50: 1200 nM
